Laboratory results reported in ChEMBL document CHEMBL1139445, “Synthesis of potent and selective 2-azepanone inhibitors of human tryptase” (Bioorg Med Chem Lett, 2004).
Where “and” joins values, the source holds several entries; their conditions need not be identical. Equal values may be shown once.

Tests used:
[1] = target: Tryptase (Homo sapiens, UniProt Q9BZJ3+Q15661+Q9NRR2); experiment: Inhibition of human tryptase.; assay type: protein assay
[2] = target: Urokinase-type plasminogen activator (Homo sapiens, UniProt P00749); experiment: Compound was tested for inhibition of human urokinase-type plasminogen activator
[3] = target: Serine protease 1 (Homo sapiens, UniProt P07477); experiment: Compound was tested for inhibition of human trypsin; set-up: reference not given here
Sequence of Serine protease 1 (P07477 whole entry): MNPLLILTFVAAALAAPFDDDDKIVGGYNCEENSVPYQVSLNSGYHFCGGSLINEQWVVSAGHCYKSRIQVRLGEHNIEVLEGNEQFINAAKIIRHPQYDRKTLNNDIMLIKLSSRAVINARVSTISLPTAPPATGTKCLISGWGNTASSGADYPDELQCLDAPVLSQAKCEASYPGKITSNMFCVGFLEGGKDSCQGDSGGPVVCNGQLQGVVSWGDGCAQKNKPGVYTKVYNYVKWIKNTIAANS

Work on CCc1ccc(-c2ccc(C(=O)NC3CCCCN(CC(=O)Nc4cccc(CN)c4)C3=O)cc2)cc1 (centres undefined) yielded an IC50 [1] of 2.9 µM.

CNCc1cccc(NC(=O)CN2CCCCC(NC(=O)c3ccc(-c4ccccc4)cc3)C2=O)c1 (centres undefined) was tested, and the IC50 [1] was > 33 µM.

For Nc1ccc(CNC(=O)CN2CCCCC(NC(=O)c3ccc(-c4ccccc4)cc3)C2=O)cc1 (centres undefined), the IC50 [1] was > 33 µM.

Compound NCc1cccc(NC(=O)CN2CCCCC(NC(=O)CCCCc3ccccc3)C2=O)c1 (centres undefined) has an IC50 [1] of 2.9 µM.

NCc1cccc(NC(=O)CN2CCCCC(NC(=O)c3cnc4ccccc4c3)C2=O)c1 (centres undefined) gave an IC50 [1] of 15 µM.

With COc1ccc(CN)cc1NC(=O)CN1CCCCC(NC(=O)c2ccc(-c3ccccc3)cc2)C1=O (centres undefined) the IC50 [1] was 0.89 µM.

In the case of NCc1cccc(NC(=O)CN2CCCCC(NC(=O)c3ccc(Cc4ccccc4)cc3)C2=O)c1 (centres undefined), the IC50 [1] is reported as 0.98 µM.

Cc1ccc(-c2ccc(C(=O)NC3CCCCN(CC(=O)Nc4cccc(CN)c4)C3=O)cc2)cc1 (centres undefined) showed an IC50 [1] of 1.3 µM.

Work on NCCc1ccc(NC(=O)CN2CCCCC(NC(=O)c3ccc(-c4ccccc4)cc3)C2=O)cc1 (centres undefined) yielded an IC50 [1] of 11 µM.

With NCCCCNC(=O)CN1CCCCC(NC(=O)c2ccc(-c3ccccc3)cc2)C1=O (centres undefined) the IC50 [1] was > 33 µM.

With Cc1ccc(CN)cc1NC(=O)CN1CCCCC(NC(=O)c2ccc(-c3ccccc3)cc2)C1=O (centres undefined) the IC50 [1] was 0.074 µM, the selectivity ratio [2] was > 450 and the selectivity ratio [3] was > 450.

Compound NCc1ccc(NC(=O)CN2CCCCC(NC(=O)c3ccc(-c4ccccc4)cc3)C2=O)cc1 (centres undefined) has an IC50 [1] of 3.6 µM.

In the case of CCN(CC)Cc1cccc(NC(=O)CN2CCCCC(NC(=O)c3ccc(-c4ccccc4)cc3)C2=O)c1 (centres undefined), the IC50 [1] is reported as > 33 µM.

NCc1cccc(NC(=O)CN2CCCCC(NC(=O)c3ccc(C4CCCCC4)cc3)C2=O)c1 (centres undefined) gave an IC50 [1] of 0.98 µM.

Nc1cccc(CNC(=O)CN2CCCCC(NC(=O)c3ccc(-c4ccccc4)cc3)C2=O)c1 (centres undefined) was tested, and the IC50 [1] was > 33 µM.

NCc1ccc(Cl)c(NC(=O)CN2CCCCC(NC(=O)c3ccc(-c4ccccc4)cc3)C2=O)c1 (centres undefined) was tested, and the IC50 [1] was 0.038 µM, the selectivity ratio [2] was > 870 and the selectivity ratio [3] was 360.

With NCCCCCNC(=O)CN1CCCCC(NC(=O)c2ccc(-c3ccccc3)cc2)C1=O (centres undefined) the IC50 [1] was 12 µM.

With O=C(CN1CCCCC(NC(=O)c2ccc(-c3ccccc3)cc2)C1=O)NCC1CCNCC1 (centres undefined) the IC50 [1] was > 33 µM.

CCc1ccc(C(=O)NC2CCCCN(CC(=O)Nc3cccc(CN)c3)C2=O)cc1 (centres undefined) was tested, and the IC50 [1] was 4.6 µM.

NC1CCCc2ccc(NC(=O)CN3CCCCC(NC(=O)c4ccc(-c5ccccc5)cc4)C3=O)cc21 (centres undefined) was tested, and the IC50 [1] was > 33 µM.

In the case of NC(=O)c1cccc(NC(=O)CN2CCCCC(NC(=O)c3ccc(-c4ccccc4)cc3)C2=O)c1 (centres undefined), the IC50 [1] is reported as > 33 µM.

For NCc1ccccc1NC(=O)CN1CCCCC(NC(=O)c2ccc(-c3ccccc3)cc2)C1=O (centres undefined), the IC50 [1] was > 33 µM.

With NCc1cccc(NC(=O)CN2CCCCC(NC(=O)CC(c3ccccc3)c3ccccc3)C2=O)c1 (centres undefined) the IC50 [1] was 0.2 µM, the selectivity ratio [2] was > 170 and the selectivity ratio [3] was > 170.

NCc1cccc(NC(=O)CN2CCCCC(NC(=O)c3ccc(-c4ccccc4)cc3)C2=O)c1 (centres undefined) was tested, and the IC50 [1] was 0.25 µM and > 0.25 µM, the selectivity ratio [2] was > 130 and the selectivity ratio [3] was > 130.

With NCC1CCC(NC(=O)CN2CCCCC(NC(=O)c3ccc(-c4ccccc4)cc3)C2=O)CC1 (centres undefined) the IC50 [1] was 12 µM.

NCc1cccc(CNC(=O)CN2CCCCC(NC(=O)c3ccc(-c4ccccc4)cc3)C2=O)c1 (centres undefined) gave an IC50 [1] of 13 µM.

Work on NCc1cccc(NC(=O)CN2CCCCC(NC(=O)Cc3ccc(-c4ccccc4)cc3)C2=O)c1 (centres undefined) yielded an IC50 [1] of 5.2 µM.

Work on NCc1cccc(NC(=O)CN2CCCCC(NC(=O)c3ccc(-c4ccc(Cl)c(Cl)c4)cc3)C2=O)c1 (centres undefined) yielded an IC50 [1] of 2.1 µM.

In the case of O=C(CN1CCCCC(NC(=O)c2ccc(-c3ccccc3)cc2)C1=O)Nc1ccc2c(c1)CNCC2 (centres undefined), the IC50 [1] is reported as > 33 µM.

With NCc1cccc(NC(=O)CN2CCCCC(NC(=O)COc3ccc4ccccc4c3)C2=O)c1 (centres undefined) the IC50 [1] was 4.6 µM.

For NCCCCCCNC(=O)CN1CCCCC(NC(=O)c2ccc(-c3ccccc3)cc2)C1=O (centres undefined), the IC50 [1] was > 33 µM.
